“Also recorded” adds a separate entry of the source.
How the values were obtained:
vitamin A-deficient rats = assay: Growth of vitamin A-deficient rats given the compounds orally in Wesson oil; type: in vivo, rat; details: for growth of vitamin A-deficient rats, comparison between atRA and its esters / growth of vitamin A-deficient rats compared to vehicle control: 83 pmole/day, FIG. 4; for growth of vitamin A-deficient rats, comparison between atRA and its esters / growth of vitamin A-deficient rats compared to vehicle control / growth (weight change) of vitamin A-deficient rats compared to atRA / growth response of vitamin A-deficient rats compared to atRA: 5 days; for in vivo activity relative to atRA (growth support): oral, vitamin A-deficient rats, overall estimate; for growth (weight change) of vitamin A-deficient rats compared to atRA: 83 pmoles/day oral in Wesson oil, FIG. 1; for growth response of vitamin A-deficient rats compared to atRA: 166 pmoles/day (50 μg/day atRA or 59.5 μg/day t-butyl-RA), FIG. 2
Text: The first test was to determine if the esterified compounds when given orally could restore normal growth of vitamin A-deficient rats. For this study, Sprague-Dawley, weanling rats were obtained from Harlan (Indianapolis, Ind.). They were fed the purified vitamin A-deficient diet previously described (Suda et al., 1970, J. Nutr. 100:1049-152) supplemented with vitamins D, E and K (White et al., 1998, Proc. Natl. Acad. Sci. USA 95:13459-13464). When the animals stopped growing and began to lose weight, they were administered the indicated doses per day dissolved in Wesson oil. Controls were given the Wesson oil alone (vehicle group). The weight change over the 5-day study period was analyzed by ANOVA, followed by a matrix of pairwise comparison probabilities using four post-hoc tests when the overall P value was less than 0.05. The post-hoc comparison tests included: Turkey HSD multiple comparisons, Sheffe test, Fisher's least-significant-difference test and the Bonferroni adjustment test.
Weanling male rats were obtained from the Harlan Company and were housed individually in hanging wire cages and fed the vitamin A-deficient diet described previously (Suda et al., 1970). At approximately 70 days of age, the animals began to show a leveling off of growth and began to show weight loss. At this time, they were used for the following studies: They were given either 0.1 ml of Wesson oil (vehicle) or the indicated dose of atRA dissolved in the vehicle or one of the derivatives at the indicated dose dissolved in the vehicle. Body weights were recorded daily and plotted as cumulative weight gain or loss over the study period as indicated on the graphs. A daily dose of 83 pmoles (25 μg/day) of atRA is near the minimum amount needed to produce normal growth in […] rats as compared to the vehicle controls that continue to lose weight (FIG. 1). […] When the dose was increased to 50 μg/day of atRA or 59.5 μg/day of the t-butyl derivative, as expected, the growth response was identical.

pregnant rats (embryos) = details: female, Sprague Dawley, rat, in vivo, 18.5 embryonic day
Text: Teratogenic activity of atRA is a serious drawback in its therapeutic potential. […] The results of this experiment illustrate that atRA is, indeed, teratogenic and that the t-butyl derivative shares this liability, but only when given at a dose of 10 times higher than that of atRA. Thus, there is a larger window of safety when using the t-butyl-RA derivative when compared to atRA.
In this experiment, 19 female rats were obtained from Sprague Dawley and were individually housed in cages and given purina chow as well as water ad libitum. After approximately two weeks of acclimation to the animal facility, the females were placed with normal males on the same diet, between 6:00 and 9:00 pm. The following morning, the females were checked for vaginal plugs indicating fertilization. Vaginal smears were then checked for sperm and when shown to be positive, the pregnant rat was placed in the study. At embryonic day 12.3 between 9:00 and 10:00 in the morning, the rats received the following treatments given as a bolus dose in oil orally. Four groups of rats received the vehicle; four received 0.1 mmole/kg (30 mg/kg) atRA in the oil vehicle; another group received an equal molar amount (35.7 mg/kg) of t-butyl-RA; and a final group received a ten-fold higher dose (357 mg/kg) of t-butyl-RA. The embryos were removed by cesarean section on day 18.5 and weighed as well as checked for cleft palette. […]

normal male rats = assay: Acute toxicity of atRA versus t-butyl-RA in normal male rats; type: in vivo, rat; details: for body weight change / apparent toxicity: second study, 1 mmole/kg/day for 5 days, FIG. 6
Method: Two independent toxicity studies were carried out with the t-butyl-RA derivative. […] However, the difference in testes weights between the atRA and t-butyl-RA groups was not statistically significant due to rather large biological variability.
We next examined the acute toxicity of the t-butyl derivative as compared to the atRA derivative in two independent trails. In these experiments, normal male rats weighing approximately 250-300 grams were used. They were individually housed in cages and given Purina lab chow as well as water ad libitum. […] This is an extremely large dose, and represents at least 3,600 times the amount of the t-butyl derivative needed to support a physiological growth response in vitamin A-deficient rats. […] Another indication of toxicity is testes weight as illustrated in FIG. 7.

With CC1=C(/C=C/C(C)=C/C=C/C(C)=C/C(=O)O)C(C)(C)CCC1 [atRA, all-trans-retinoic acid, reference compound] the “growth of vitamin A-deficient rats, comparison between atRA and its esters” value (shortened to “growth … comparison between atRA and its esters”) (vitamin A-deficient rats) was “superior to that of the cholesterol ester-fed group”.

With CC1=C(/C=C/C(C)=C/C=C/C(C)=C/C(=O)O[C@H]2CC[C@@]3(C)C(=CCC4C3CC[C@@]3(C)C4CC[C@@H]3[C@H](C)CCCC(C)C)C2)C(C)(C)CCC1 (stereo partly drawn) [cholesterol ester, all-trans-retinoic acid cholesterol ester] the “growth of vitamin A-deficient rats compared to vehicle control” value (vitamin A-deficient rats) was “significantly enhanced growth compared to vehicle control animals; also recorded: clearly much improved over the vehicle control”, the “growth … comparison between atRA and its esters” value (vitamin A-deficient rats) was “less effective” and the “in vivo activity relative to atRA (growth support)” value (shortened to “in vivo activity relative to atRA”) (vitamin A-deficient rats) was “less effective; also recorded: one-third”.

For CC1=C(/C=C/C(C)=C/C=C/C(C)=C/C(=O)OC(C)(C)C(C)(C)O)C(C)(C)CCC1 [pinacol ester, all-trans-retinoic acid pinacol ester], the “growth of vitamin A-deficient rats compared to vehicle control” value (vitamin A-deficient rats) was “significantly enhanced growth compared to vehicle control animals”, the “growth … comparison between atRA and its esters” value (vitamin A-deficient rats) was “nearly equivalent to atRA” and the “in vivo activity relative to atRA” value (vitamin A-deficient rats) was “nearly as active as atRA”.

CC1=C(/C=C/C(C)=C/C=C/C(C)=C/C(=O)OC(C)(C)C)C(C)(C)CCC1 [t-butyl-RA, all-trans-retinoic acid tert-butyl ester] was tested, and the “growth (weight change) of vitamin A-deficient rats compared to atRA” value (vitamin A-deficient rats) was “did not differ significantly from that of the group fed an equal molar amount of atRA”, the “growth (weight change) of vitamin A-deficient rats compared to atRA” value (vitamin A-deficient rats; listed as t-butyl derivative) was “did not differ from that of atRA” and the “growth response of vitamin A-deficient rats compared to atRA” value (vitamin A-deficient rats) was “equivalent”. For the same compound, the “growth response of vitamin A-deficient rats compared to atRA” value (vitamin A-deficient rats; listed as t-butyl derivative) was “identical”, the “in vivo activity relative to atRA” value (vitamin A-deficient rats) was “equal to atRA in potency and efficacy” and the “in vivo activity relative to atRA” value (vitamin A-deficient rats; listed as t-butyl derivative) was “as active as atRA”. The “in vivo activity relative to atRA” value (vitamin A-deficient rats; listed as t-butyrate ester) was “as active in vivo when given orally as is atRA”, the “dose relative to atRA required to produce equivalent teratogenic effects” value (pregnant rats (embryos)) was 10 and the “times less teratogenic than atRA” value (pregnant rats (embryos)) was “approximately 10 times”. The “non-toxic dose as multiple of the amount needed to support a physiological growth response” value (normal male rats; 1 mmole/kg/day (357 mg/kg/day) versus growth dose in vitamin A-deficient rats) was “at least 3,600 times”, the testes weight (normal male rats; 1 mmole/kg/day, FIG. 7, listed as t-butyl derivative) was “no such indication; also recorded: similar” and the body weight change (normal male rats; first study, 1 mmole/kg/day (300 mg/kg/day atRA, 357 mg/kg/day t-butyl-RA), 7 days, FIG. 5) was “continued growth; also recorded: did not cause a weight loss”. For the same compound, the “other signs of toxicity” value (normal male rats; first study, 1 mmole/kg/day, 7 days, FIG. 5) was “no other externally obvious toxicity”, the “body weight change / apparent toxicity” value (normal male rats) was “no apparent toxicity” and the “body weight change / apparent toxicity” value (normal male rats; listed as t-butyl derivative) was “normal growth”.

From patent US7750043B2, “Modified retinoid compounds and their uses” (Wisconsin Alumni Research Foundation, priority 2003, dated 2010)
